Data on 21 compounds can be found in US20250268903A1, “RXFP1 AGONISTS” (BRISTOL-MYERS SQUIBB COMPANY, priority 2021, published 2025).

As usually defined, the EC50 is the concentration giving half of the maximal effect.

This test deals with T1, human RXFP1 (Homo sapiens, UniProt Q9HBX9).
T1 construct: expressed in transfected cells
T1 sequence (Q9HBX9 1-757): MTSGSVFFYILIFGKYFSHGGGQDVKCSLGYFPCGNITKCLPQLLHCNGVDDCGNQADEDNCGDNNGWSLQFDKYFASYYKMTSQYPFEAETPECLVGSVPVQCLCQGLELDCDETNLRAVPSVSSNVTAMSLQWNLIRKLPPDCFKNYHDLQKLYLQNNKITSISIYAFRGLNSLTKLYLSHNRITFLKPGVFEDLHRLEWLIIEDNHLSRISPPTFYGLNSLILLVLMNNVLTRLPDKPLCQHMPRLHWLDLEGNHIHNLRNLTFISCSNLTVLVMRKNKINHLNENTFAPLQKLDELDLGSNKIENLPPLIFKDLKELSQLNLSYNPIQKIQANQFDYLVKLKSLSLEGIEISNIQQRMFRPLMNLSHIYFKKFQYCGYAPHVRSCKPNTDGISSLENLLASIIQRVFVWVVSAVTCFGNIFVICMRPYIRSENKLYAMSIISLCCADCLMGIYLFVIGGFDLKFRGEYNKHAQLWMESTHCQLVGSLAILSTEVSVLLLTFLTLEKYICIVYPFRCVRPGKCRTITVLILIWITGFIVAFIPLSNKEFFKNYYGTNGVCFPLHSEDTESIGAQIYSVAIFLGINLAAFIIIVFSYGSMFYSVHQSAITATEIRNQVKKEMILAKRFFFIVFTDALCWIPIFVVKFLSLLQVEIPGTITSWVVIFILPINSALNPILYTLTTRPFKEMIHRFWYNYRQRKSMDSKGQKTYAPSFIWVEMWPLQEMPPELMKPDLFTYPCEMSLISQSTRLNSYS
Nature of the test: hRXFP1 HEK293 cAMP assay (HTRF). The format is cell-based. Conditions: HEK293 cells stably expressing human RXFP1, 30 min at room temperature. In a few lines:
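hRXFP1-HEK293 stable line; HBSS + Ca/Mg, 20 mM HEPES, 0.05% BSA, 0.5 mM IBMX; cpd 0.010 nM–50 μM, 2% DMSO; 30 min RT; lysis, HTRF cAMP detection; 4-PL fit.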
(cAMP levels reflect the balance of adenylyl cyclase and phosphodiesterase activity.)
`COc1ccc(CCC(C)(C)O)cc1C(=O)NC1C2CCC(/C2=C/C2CCOC2)[C@@H]1C(=O)Nc1ccc(F)c(C(F)(F)F)c1` (stereo partly drawn) [Example 169, (7Z)-N-[4-fluoro-3-(trifluoromethyl)phe-nyl]-3-[5-(3-hydroxy-3-methylbutyl)-2-methoxybenzamido]-7-[(oxolan-3-yl)methylidene]bicy-clo[2.2.1]heptane-2-carboxamide]: the EC50 worked out at 102 nM. The same measure for `COc1ccc(C2CCCC2)cc1C(=O)N[C@@H]1C2CCC(/C2=C/C(F)(F)F)[C@@H]1C(=O)Nc1ccc(F)c(C(F)(F)F)c1` (stereo partly drawn) [Example 47, (2S,3R,7Z)-3-(5-cyclopentyl-2-methoxybenzamido)-N-[4-fluoro-3-(trifluoroemthyl)phe-nyl]-7-(2,2,2-trifluoroethylidene) bicyclo[2.2.1]heptane-2-carboxamide]: 926 nM; for `COC(=O)C1CC(c2ccc(OC)c(C(=O)N[C@H]3[C@@H](C(=O)Nc4ccc(F)c(C(F)(F)F)c4)[C@H]4CC[C@@H]3/C4=C\C3CC3)c2)C1` (single isomer, unassigned) [Example 328]: 21.3 nM. The same measure for `COc1ccc(CCCCCOC(=O)NC2CCC2)cc1C(=O)N[C@@H]1C2CCC(/C2=C/C(F)(F)F)[C@@H]1C(=O)Nc1ccc(F)c(C(F)(F)F)c1` (stereo partly drawn) [Example 103, 5-(3-{[(2R,3S,7Z)-3-{[4-fluoro-3-(trifluoromethyl)phe-nyl]carbamoyl}-7-(2,2,2-trifluoroethylidene)bi-cyclo[2.2.1]heptan-2-yl]carbamoyl}-4-methoxyphenyl)pent-yl N-cyclobutylcarbamate]: 725 nM. Then `COc1ccc(CCN2CCOC2=O)cc1C(=O)NC1C2CCC(/C2=C/C(F)(F)F)[C@@H]1C(=O)Nc1ccc(F)c(C(F)(F)F)c1` (stereo partly drawn) [Example 182, (7Z)-N-[4-fluoro-3-(trifluoromethyl)phe-nyl]-3-{2-methoxy-5-[2-(2-oxo-1,3-oxazolidin-3-yl)ethyl]benzamido}-7-(2,2,2-trifluoroethylidene)bi-cyclo[2.2.1]heptane-2-carboxamide], with 139 nM; and `COc1c(F)cc(C(=O)NCC2(S(C)(=O)=O)CC2)cc1C(=O)N[C@H]1[C@@H](C(=O)Nc2ccc(F)c(C(F)(F)F)c2)[C@H]2CC[C@@H]1/C2=C\C1CCCC1` [Example 367, N3-[(1R,2R,3S,4R,7Z)-7-(cyclopentyl-methylidene)-3-{[4-fluoro-3-(trifluoromethyl)phenyl]carbamoyl}bicyclo[2.2.1]heptan-2-yl]-5-fluoro-N1-[(1-methanesulfonyl-cyclopropyl)methyl]-4-methoxybenzene-1,3-dicarboxamide], with 2.3 nM; and `COc1ccc(C(=O)N2C3CCC2COC3)cc1C(=O)N[C@H]1[C@@H](C(=O)Nc2ccc(F)c(C(F)(F)F)c2)[C@H]2CC[C@@H]1/C2=C\C1CC1` [Example 258, (1R,2S,3R, 4R,7Z)-7-(cyclopropyl-methylidene)-N-[4-fluoro-3-(trifluoromethyl)phenyl]-3-(2-methoxy-5-{3-oxa-8-azabicyclo [3.2.1]octane-8-carbonyl}benzamido) bicyclo[2.2.1] heptane-2-carboxamide], with 32.9 nM. The compound `COc1ccc(C(=O)N2CC3(C2)CS(=O)(=O)C3)cc1C(=O)N[C@H]1[C@@H](C(=O)Nc2ccc(F)c(C(F)(F)F)c2)[C@H]2CC[C@@H]1/C2=C\C1CC1` [Example 243, (1R,2S,3R,4R,7Z)-7-(cyclopropyl-methylidene)-3-(5-{2,2-dioxo-2λ^6-thia-6-azaspiro[3.3]heptane-6-carbonyl}-2-methoxybenzamido)-N-[4-fluoro-3-(trifluoromethyl)phenyl]bicyclo[2.2.1] heptane-2-carboxamide] had an EC50 of 11.9 nM. In turn, `COc1ccc(CCCCOC(=O)NC2CCC2)cc1C(=O)N[C@@H]1C2CCC(/C2=C/C(F)(F)F)[C@@H]1C(=O)Nc1ccc(F)c(C(F)(F)F)c1` (stereo partly drawn) [Example 102, 4-(3-{[(2R,3S,7Z)-3-{[4-fluoro-3-(trifluoromethyl)phe-nyl]carbamoyl}-7-(2,2,2-trifluoroethylidene)bi-cyclo[2.2.1]heptan-2-yl]carbamoyl}-4-methoxyphenyl)butyl N-cyclobutylcarbamate] registered an EC50 of 439 nM.

`COc1ccc(C(=O)N2CCCC(CO)C2)cc1C(=O)N[C@H]1[C@@H](C(=O)Nc2ccc(F)c(C(F)(F)F)c2)[C@H]2CC[C@@H]1/C2=C\C1CC1` (stereo partly drawn) [Example 235, (1R,2S,3R,4R,7Z)-7-(cyclopropylmethyl-idene)-N-[4-fluoro-3-(trifluoromethyl)phenyl]-3-{5-[3-(hydroxymethyl)piperidine-1-carbonyl]-2-methoxybenzamido} bicyclo[2.2.1] heptane-2-carboxamide] gave an EC50 of 130 nM. Then `COc1ccc(C#C[C@@H](C)O)cc1C(=O)N[C@@H]1C2CCC(/C2=C/C2CC2)[C@@H]1C(=O)Nc1ccc(F)c(C(F)(F)F)c1` (stereo partly drawn) [Example 73, (2S,3R,7Z)-7-(cyclopropylmethyli-dene)-N-[4-fluoro-3-(trifluoromethyl)phe-nyl]-3-{5-[(3R)-3-hydroxybut-1-yn-1-yl]-2-methoxybenzamido} bicyclo[2.2.1]heptane-2-carboxamide], with 88 nM; and `COc1ccc(C2CC2C(=O)O)cc1C(=O)N[C@@H]1C2CCC(/C2=C/C(F)(F)F)[C@@H]1C(=O)Nc1ccc(F)c(C(F)(F)F)c1` (single isomer, unassigned) [Example 62], with 172 nM; and `COc1ccc(CCN2CCOC2=O)cc1C(=O)NC1C2CCC(/C2=C/C2CCC2)[C@@H]1C(=O)Nc1ccc(F)c(C(F)(F)F)c1` (stereo partly drawn) [Example 191, (7Z)-7-(cyclobutylmethyl-idene)-N-[4-fluoro-3-(trifluoromethyl)phe-nyl]-3-{2-methoxy-5-[2-(2-oxo-1,3-oxazolidin-3-yl)ethyl]benzamido} bicyclo[2.2.1]heptane-2-carboxamide], with 40 nM. Then “(1R,4R,7Z)-7-(2- cyclobutylethylidene)- N-[4-fluoro-3- (trifluoromethyl) phenyl]-3-[5-(3- hydroxypropyl)-2- methoxybenzamido] bicyclo[2.2.1]heptane- 2-carboxamide [Example 261]”, with 147 nM. The same measure for `CCOC(=O)C1CCCC(c2ccc(OC)c(C(=O)N[C@@H]3C4CCC(/C4=C/C(F)(F)F)[C@@H]3C(=O)Nc3ccc(F)c(C(F)(F)F)c3)c2)C1` (stereo partly drawn) [Example 142]: 167 nM.

`COc1ccc(C2CCCC(O)C2)cc1C(=O)N[C@@H]1C2CCC(/C2=C/C(F)(F)F)[C@@H]1C(=O)Nc1ccc(F)c(C(F)(F)F)c1` (single isomer, unassigned) [Example 36] displayed an EC50 of 442 nM. Then `CCOC(=O)C1CCC(c2ccc(OC)c(C(=O)NC3C4CCC(/C4=C/C(F)(F)F)[C@@H]3C(=O)Nc3ccc(F)c(C(F)(F)F)c3)c2)CC1` (stereo partly drawn) [Example 143, ethyl 4-(3-{[(2R,3S,7Z)-3-{[4-fluoro-3-(trifluoromethyl)phe-nyl]carbamoyl}-7-(2,2,2-trifluoroethylidene)bi-cyclo[2.2.1]heptan-2-yl]carbamoyl}-4-methoxyphenyl)cyclo-hexane-1-carboxylate], with 202 nM; and `COc1ccc(C2CCC(C(F)(F)F)CC2)cc1C(=O)NC1C2CCC(/C2=C/C(F)(F)F)[C@@H]1C(=O)Nc1ccc(F)c(C(F)(F)F)c1` (stereo partly drawn) [Example 177, (7Z)-N-[4-fluoro-3-(trifluoromethyl)phe-nyl]-3-{2-methoxy-5-[4-(trifluoromethyl)cyclo-hexyl]benzamido}-7-(2,2,2-trifluoroethylidene)bi-cyclo[2.2.1]heptane-2-carboxamide], with 298 nM; and `COc1ccc(C2CCCCC2)cc1C(=O)N[C@@H]1C2CCC(/C2=C/C(F)(F)F)[C@@H]1C(=O)Nc1ccc(F)c(C(F)(F)F)c1` (stereo partly drawn) [Example 39, (2S,3R,7Z)-3-(5-cyclohexyl-2-methoxybenzamido)-N-[4-fluoro-3-(trifluoromethyl)phenyl]-7-(2,2,2-trifluoroethylidene) bicyclo[2.2.1]heptane-2-carboxamide], with 611 nM.

`COc1ccc(C2CCCC(NC(=O)C3CCOCC3)C2)cc1C(=O)N[C@@H]1C2CCC(/C2=C/C(F)(F)F)[C@@H]1C(=O)Nc1ccc(F)c(C(F)(F)F)c1` (single isomer, unassigned) [Example 50]: a half-maximal response (EC50) required 2350 nM. Consider `COc1ccc(C(=O)N2CCC(S(C)(=O)=O)C2)cc1C(=O)N[C@H]1[C@@H](C(=O)Nc2ccc(F)c(C(F)(F)F)c2)[C@H]2CC[C@@H]1/C2=C\C1CC1` (stereo partly drawn) [Example 252, (1R,2S,3R,4R,7Z)-7-(cyclopropyl-methylidene)-N-[4-fluoro-(trifluoromethyl)phenyl]-3-[5-(3-methanesulfonyl-pyrrolidine-1-carbonyl)-2-methoxybenzamido] bicyclo[2.2.1] heptane-2-carboxamide], for which a half-maximal effect (EC50) was put at 4.16 nM.
